Laboratory results published in US10954214B2 (Janssen Pharmaceutica NV, priority 2016, dated 2021).

Key:
[1] = system: IL10 secretion by TMD8 ABC-DLBCL cells; experiment: Human IL10 Mesoscale assay (TMD-8); format: cell-based; settings: Homo sapiens, TMD8; TMD-8 cells, 24 h
In short: (§1)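 Read-out: MSD electrochemiluminescence of IL6/IL10 in supernatants. Cells (100,000/well, no beta-mercaptoethanol) were exposed to compounds at 15 μM down to 58.6 nM, 1:2 dilutions, for 24 h at 37° C, 5% CO2. Normalised between DMSO (high) and RN486 (low) controls.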

[2] = target: full-length MALT1 protein (Strep-MALT1(1-824)-His) (Homo sapiens (Human), UniProt Q9UDY8); experiment: MALT1 Biochemical Protease Assay (Ac-LRSR-AMC substrate); settings: 10 nM FL MALT1, 200 μM Ac-LRSR-AMC, 4 h at RT; read-out: MALT1_Biochemical activity (Ac-LRSR-amc) IC50
In short: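 Fluorescence from AMC release off the quenched LRSR substrate was read after a 4 h reaction at RT. Values were normalised to no-enzyme and uninhibited controls and fitted for IC50 and Hill coefficient.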

TMD8 cells = experiment: 4-day proliferation assay, TMD8; format: cell-based; settings: Homo sapiens, 96 h, 4 days incubation, CellTiterGLO, read-out: Anti-proliferation: TMD-8 IC50
In short: (§2)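 Each line was plated at 10,000 cells per well for linear growth, with no beta-mercaptoethanol during the assay. OCI-Ly3 cells were below passage 10.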

[3] = system: IL6 secretion by TMD8 ABC-DLBCL cells; experiment: Human IL6 Mesoscale assay (TMD-8); format: cell-based; settings: Homo sapiens, TMD8; TMD-8 cells, 24 h
In short: as §1

Jurkat cells = experiment: PMA Induced IL2 Production In Jurkat Cells; format: cell-based; settings: Homo sapiens, PMA/Ionomycin, 20 h, read-out: IL-2 prod h Jurkat PMA IC50
Method: Jurkat cells were maintained in complete RPMI 1640 media containing 10% fetal bovine serum, 10 mM HEPES, 100 units/mL of penicillin and 100 μg/mL of streptomycin. Prior to the assay, compounds were made 2- to 4-fold serial dilutions in DMSO. A volume of 10 μL of DMSO-diluted compound in each well were further diluted into 240 μL RPMI1640 complete media. Jurkat cells were harvested by centrifuge at 1200 RPM for 5 min, washed one time with RPMI 1640 media, and suspended in fresh complete RPMI 1640 media at concentration of 1.25×10^6 cell/mL. A volume of 160 uL of Jurkat cells (2×10^5 cells) were seeded in each well of 96 well plate-bottom plates. A volume of 20 uL of diluted compound in RMPI 1640 complete media were added to each well and incubated with Jurkat cells for 30 min at 37° C. in a 5% CO2 incubator. A volume 20 μL of diluted PMA/Ionomycin (81 nM/1.3 uM respectively, ebioscience, catalog number 00-4970-93) in RMPI 1640 complete media were added to each well. After incubation at 37° C. in 5% CO2 incubator for 20 h, supernatants were harvested. IL-2 concentration was assessed by ELISA (IL2 Duoset, R&D Systems, catalog number DY202). Colorimetric intensity at 450 nm was read by Spectramax plate reader and analyzed with Softmax Pro software. Cell viability was assessed by Cell Titer Glo kit (Promega, catalog number G7571) using Victor Luminescence reader (Victor 3V 4202938 by Perkin Elmer).

OCI-Ly3 cells = experiment: 4-day proliferation assay, OCI-Ly3; format: cell-based, human; settings: Homo sapiens, 96 h, 4 days incubation, CellTiterGLO, read-out: Anti-proliferation: OCI-LY-3 IC50
In short: as §2

Chain of full-length MALT1 protein (Strep-MALT1(1-824)-His) (Q9UDY8 whole entry): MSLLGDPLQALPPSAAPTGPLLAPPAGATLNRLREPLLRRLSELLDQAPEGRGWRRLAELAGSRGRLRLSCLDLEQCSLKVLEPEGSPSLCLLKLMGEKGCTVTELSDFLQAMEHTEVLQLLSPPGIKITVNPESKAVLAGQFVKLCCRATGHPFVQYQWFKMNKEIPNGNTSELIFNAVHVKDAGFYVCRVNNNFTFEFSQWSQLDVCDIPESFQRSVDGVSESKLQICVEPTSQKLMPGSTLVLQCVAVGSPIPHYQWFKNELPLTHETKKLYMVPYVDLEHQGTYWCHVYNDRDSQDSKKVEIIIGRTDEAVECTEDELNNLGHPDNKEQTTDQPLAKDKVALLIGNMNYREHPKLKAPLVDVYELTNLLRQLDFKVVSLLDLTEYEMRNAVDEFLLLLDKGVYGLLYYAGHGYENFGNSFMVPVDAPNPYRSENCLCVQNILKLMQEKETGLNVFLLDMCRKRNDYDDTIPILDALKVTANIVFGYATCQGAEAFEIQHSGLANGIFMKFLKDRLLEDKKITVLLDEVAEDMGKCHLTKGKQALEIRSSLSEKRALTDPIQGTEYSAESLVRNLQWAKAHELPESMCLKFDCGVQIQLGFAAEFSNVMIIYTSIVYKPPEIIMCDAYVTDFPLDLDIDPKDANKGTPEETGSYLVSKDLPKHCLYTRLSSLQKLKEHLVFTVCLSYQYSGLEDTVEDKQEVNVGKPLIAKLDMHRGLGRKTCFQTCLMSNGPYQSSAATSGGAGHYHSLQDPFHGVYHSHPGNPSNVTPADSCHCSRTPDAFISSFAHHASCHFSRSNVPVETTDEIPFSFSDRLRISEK

SMILES: N#Cc1ncc(NC(=O)c2cnn(-c3cncc4ccccc34)c2C(F)(F)F)cc1C(F)(F)F [Cpd 49, N-(6-cyano-5-(trifluoromethyl)pyridin-3-yl)-1-(isoquinolin-4-yl)-5-(trifluoromethyl)-1H-pyrazole-4-carboxamide]
- IC50 [1]: 0.076 µM
- IC50 [2]: 0.155 µM
- IC50 (TMD8 cells): 5.01 µM
- IC50 [3]: ~0.083 µM
- IC50 (Jurkat cells): 0.018 µM
- IC50 (OCI-Ly3 cells): 0.41 µM

SMILES: O=C(Nc1cnc(N2CCCS2(=O)=O)c(Cl)c1)c1cnn(-c2cncc3ccccc23)c1C(F)(F)F [Cpd 42, N-(5-Chloro-6-(1,1-dioxidoisothiazolidin-2-yl)pyridin-3-yl)-1-(isoquinolin-4-yl)-5-(trifluoromethyl)-1H-pyrazole-4-carboxamide]
- IC50 [1]: ~0.11 µM
- IC50 [2]: 0.162 µM
- IC50 (TMD8 cells): 6.17 µM
- IC50 [3]: 0.117 µM
- IC50 (Jurkat cells): 0.011 µM
- IC50 (OCI-Ly3 cells): 0.56 µM

SMILES: N#Cc1cc(NC(=O)c2cnn(-c3cncc4ccccc34)c2C(F)(F)F)cnc1-n1nccn1 [Cpd 47, N-(5-cyano-6-(2H-1,2,3-triazol-2-yl)pyridin-3-yl)-1-(isoquinolin-4-yl)-5-(trifluoromethyl)-1H-pyrazole-4-carboxamide]
- IC50 [1]: ~0.01 µM
- IC50 [2]: 0.011 µM
- IC50 (TMD8 cells): 8.13 µM
- IC50 [3]: ~0.048 µM
- IC50 (Jurkat cells): 0.009 µM
- IC50 (OCI-Ly3 cells): ~0.19 µM

SMILES: O=C(Nc1ccc(-n2nccn2)c(Cl)c1)c1cnn(-c2cncc3ccccc23)c1C(F)(F)F [Cpd 38, N-(3-chloro-4-(2H-1,2,3-triazol-2-yl)phenyl)-1-(isoquinolin-4-yl)-5-(trifluoromethyl)-1H-pyrazole-4-carboxamide]
- IC50 [1]: 0.014 µM
- IC50 [2]: 0.02 µM
- IC50 (TMD8 cells): 3.8 µM
- IC50 [3]: 0.046 µM
- IC50 (Jurkat cells): 0.021 µM
- IC50 (OCI-Ly3 cells): 1.15 µM

SMILES: Cc1ncn(-c2ncc(NC(=O)c3cnn(-c4cncc5ccccc45)c3C(F)(F)F)cc2Cl)n1 [Cpd 53, N-(5-Chloro-6-(3-methyl-1H-1,2,4-triazol-1-yl)pyridin-3-yl)-1-(isoquinolin-4-yl)-5-(trifluoromethyl)-1H-pyrazole-4-carboxamide]
- IC50 [1]: 0.24 µM
- IC50 [2]: 0.1 µM
- IC50 (TMD8 cells): ~13.5 µM
- IC50 [3]: 0.2 µM
- IC50 (Jurkat cells): 0.38 µM
- IC50 (OCI-Ly3 cells): 1.07 µM

SMILES: Cc1ncnn1-c1ncc(NC(=O)c2cnn(-c3cncc4ccccc34)c2C(F)(F)F)cc1Cl [Cpd 54, N-(5-Chloro-6-(5-methyl-1H-1,2,4-triazol-1-yl)pyridin-3-yl)-1-(isoquinolin-4-yl)-5-(trifluoromethyl)-1H-pyrazole-4-carboxamide]
- IC50 [1]: 0.269 µM
- IC50 [2]: 0.275 µM
- IC50 (TMD8 cells): 8.71 µM
- IC50 [3]: 0.11 µM
- IC50 (Jurkat cells): 0.37 µM
- IC50 (OCI-Ly3 cells): 0.46 µM

SMILES: N#Cc1ncc(NC(=O)c2cnn(-c3cncc4ccccc34)c2C(F)(F)F)cc1F [Cpd 41, N-(6-cyano-5-fluoropyridin-3-yl)-1-(isoquinolin-4-yl)-5-(trifluoromethyl)-1H-pyrazole-4-carboxamide]
- IC50 [1]: 0.851 µM
- IC50 [2]: 0.891 µM
- IC50 (TMD8 cells): > 20 µM
- IC50 [3]: ~2.09 µM
- IC50 (Jurkat cells): 0.3 µM
- IC50 (OCI-Ly3 cells): 1.58 µM

SMILES: O=C(Nc1cnc(-n2nccn2)c(Cl)c1)c1cnn(-c2cncc3ccccc23)c1C(F)(F)F [Cpd 32, N-(5-chloro-6-(2H-1,2,3-triazol-2-yl)pyridin-3-yl)-1-(isoquinolin-4-yl)-5-(trifluoromethyl)-1H-pyrazole-4-carboxamide]
- IC50 [1]: 0.014 µM
- IC50 [2]: 0.019 µM
- IC50 (TMD8 cells): 4.9 µM
- IC50 [3]: 0.017 µM
- IC50 (Jurkat cells): 0.002 µM
- IC50 (OCI-Ly3 cells): 0.11 µM

SMILES: CN1CCN(C(=O)c2ncc(NC(=O)c3cnn(-c4cncc5ccccc45)c3C(F)(F)F)cc2Cl)CC1 [Cpd 48, N-(5-chloro-6-(4-methylpiperazine-1-carbonyl)pyridin-3-yl)-1-(isoquinolin-4-yl)-5-(trifluoromethyl)-1H-pyrazole-4-carboxamide]
- IC50 [1]: ~2.14 µM
- IC50 [2]: 0.631 µM
- IC50 (TMD8 cells): 16.2 µM
- IC50 [3]: ~0.83 µM
- IC50 (Jurkat cells): 0.45 µM
- IC50 (OCI-Ly3 cells): 0.3 µM
